Earlier results on two compounds are cited in patent US20060154981A1, “Method of reducing intraocular pressure and treating glaucoma” (Alcon, Inc., priority 2005, published 2006).

One data set deals with IOP. The conditions noted are these: rabbits.
The next data set deals with neutrophils. The conditions noted are these: compared with lipoxin A4.

Regarding `CCCCC[C@H](O)/C=C/C=C\C=C\C=C\[C@@H](O)[C@@H](O)CCCC(=O)OC` [methyl ester of lipoxin A4], the IOP lowering result in the data set on IOP is on record as “reported to lower IOP in rabbits”.

`CCCCC[C@H](O)[C@H](O)CO` [compound 2]: in the data set on neutrophils, the “Inhibition of LTB4-induced chemotaxis of neutrophils” value is “inhibit LTB4-induced chemotaxis of neutrophils as potently as lipoxin A4”.
